In patent publication US20250059499A1, “CELL-SURFACE ENGINEERING COMPOSITIONS AND METHODS FOR THE PREVENTION OF IMMUNE REJECTION” (THE UNIVERSITY OF BRITISH COLUMBIA, priority 2021, published 2025):
“Also recorded” adds a separate entry of the source. LPG = linear polyglycerol, Mn 14,900 Da

Assays:
[1] = test system: Ea.hy926 cells; assay: Lifetime of grafted polymer on the cell surface; format: cell-based; conditions: 37° C., after ligation with 0.5 mM polymer
Protocol: For lifetime measurements, polymers were attached to endothelial surfaces according to procedures outlined herein using 0.5 mM LPG-Q (10% BODIPY FL™) and exchanged into phenol-free DMEM (5% FBS, pen/strep) and incubated at 37° C. and 5% CO2. For each time point the supernatant was removed and saved for further analysis and the cell monolayers were trypsinized and subjected to flow cytometry (CytoFLEX™, Beckman Coulter™) in which 10,000 events were acquired and the median fluorescent intensity (MFI) in the 488 channel was recorded. The fluorescent intensity of the BODIPY-FL Dye in the supernatant was measured (λex/λem=503/520 nm using) a plate reader (Spectramax i3™, Molecular Devices™). Intensity values were normalized to the total cell number in each well as assessed by a trypan blue staining assay.

[2] = test system: Ea.hy926 cells; assay: Enzyme-mediated glycocalyx removal from endothelial surface (loss of attached polymer); format: cell-based; conditions: 0.1 mM H2O2 and 1 nM epinephrine, 1 hour at 37° C.
Protocol: Ea.hy926 endothelial cells were treated with 0.5 mM LPG-SS or LPG-Q (containing 10% BODIPY FL) for 30 min at 4° C. in UW solution fortified with 3 mM GSH, 5 mM CaCl2, 0.2 U/mL gtTGase. […] Cells were washed, trypsinized and immediately subjected to flow cytometry. Controls with no enzyme treatment were used to set gates for 100% labeled cell populations.

[3] = test system: cell-surface ICAM-1; assay: ICAM-1 labelling by flow cytometry (immunocamouflage); format: cell-based, human; conditions: TNF-α activated Ea.hy926, 0.2-3.0 mM polymer, UW, 4° C.
Protocol: For ICAM-1 labelling, Ea.hy926 cells were activated with TNF-α (2000 U/mL, 3 hours)^9 in serum deficient DMEM to stimulate the expression of ICAM-1 on the cell surface before polymer attachment. To account for differences in reactivity between Q-tagged polymers, concentrations of polymer added to the solution were adjusted using NH3 generation data to ensure that a similar number of polymers attached to the cell surface. Following polymer attachment, the cells were fixed, and labelled with PE-Cy™5 Mouse Anti-Human CD54 (1:20, BD Biosciences™) for 20 minutes at room temp in the dark. The cell monolayers were trypsinized and subjected to flow cytometry (CytoFLEX™, Beckman Coulter™) in which 10,000 events were acquired and the median fluorescent intensity in the 667 channel was recorded

[4] = test system: Ea.hy926 cells co-cultured with HLA-A2-reactive CAR T cells; format: cell-based; conditions: effector:target 2:1, 1:2 and 1:10, 18 hours
Protocol: The experiment was performed similar to previously described PBMC/Ea.hy926 co-culture experiments by replacing the effector with CAR-T cells. Ea.hy926 cells were engineered with polymers in UW solution as outlined. Cryopreserved CAR T cells were thawed using standard protocol41 and were pelleted and resuspended in phenol-free DMEM (5% FBS, pen/strep) at an effector (CAR-T cell) to target (Ea.hy926) ratios of 2:1, 1:2 and 1:10 (Vf=100 μL). After 18 hours, supernatants were removed from the wells and PBMCs were removed through centrifugation (300 g×5 minutes) and measured for LDH content to probe cell lysis using an LDH cytotoxicity assay (Biovision Inc.™). CAR-T cell-mediated cytotoxicity was calculated according to Eq. 2 replacing PBMC LDH release with CAR-T cell LDH release. LDH released by Ea.hy926 following 18 hour culture period that have not undergone polymer attachment and cultured in the absence of CAR-T cell is the 100% alive control and LDH released by Ea.hy926 following treatment with RIPA buffer for 10 minutes at ambient temperature is 100% dead control.

[5] = test system: Balb/c aortic allograft in C57BL/6 recipient; assay: Murine aortic interposition grafting, morphological analysis of allograft arteries; format: in vivo, mouse; conditions: day 2 post-transplantation
Protocol: Murine aortic interposition grafting was performed as described previously.^13,14 Segments of abdominal aorta from Balb/c (H2d) donor mice were excised, flushed with UW solution and then incubated in UW solution alone (containing 5 Mm CaCl2, 0.2 U/Ml gTGase and 3 mM GSH) or UW solution fortified with 0.2 U/mL gtTGase and 0.5 Mm polymer (LPG-Q, LPG-QSia3Lac) for 1 hour at 4° C. Aortic segments were then flushed with saline and interposed into the resected infra-renal aorta of C57BL/6 (H2b) recipient mice.
At day 2, 15 and 42 post-transplantation, grafted artery segments were perfusion fixed with 4% (v/v) paraformaldehyde, excised, and frozen in optimal cutting temperature medium. […] Medial thickness was quantified using ImageJ software (NIH) as described.69 Histological features of acute rejection at day 15 post-transplantation were graded in a blinded manner on a 0-12 scale because acute rejection involves more extensive features of immune reaction and injury compared to day 2 post-transplantation. […] Leukocyte infiltration, medial injury and intimal thickening were each graded on a 0-4 scale and an aggregate score calculated. For evaluation of chronic rejection, intimal thickening at day 42 was quantified by averaging the luminal narrowing in 3 cross-sections per artery that were ˜100, 150 and 200 μm past the suture sites using ImageJ™ software.

[6] = test system: TNF-α activated Ea.hy926 cells co-cultured with IL-2 activated PBMCs
Protocol: (§1) EA.hy 926 monolayers were activated using TNF-α and PBMCs were activated using IL-2 as described in PBMC adhesion experiments. Following activation, PBMC was collected and resuspended in DMEM (Phenol free, 5% FBS, pen/strep). PBMCs were then added to activated EA.hy 926 monolayers (modified and unmodified) to a final concentration of 0.15×10^6 cells/mL and left to incubate at 37° C. and 5% CO2 for 18 hour. After treatment, the supernatant was collected and cell debris was removed through centrifugation. LDH content was measured using LDC cytotoxicity assay (Biovision Inc.™). Cytotoxicity was calculated using the equation below;
(§2) where, LDHsample is the amount of LDH released from the sample, LDHPBMC is the amount of LDH released from PBMC samples not subjected to EA.hy 926 monolayers, LDHalive is the amount of LDH released from EA.hy 926 monolayers not subjected to PBMCs, and LDHdead is the amount of LDH released of EA.hy926 monolayers treated with RIPA buffer for 10 minutes at room temperature.

[7] = test system: TNF-α activated Ea.hy926 cells co-cultured with IL-2 activated PBMCs; assay: PBMC-mediated cytotoxicity (LDH assay)
Protocol: as §1, §2

linear polyglycerol glutamine (Ac-GQQQLGGGGG-{LPG}; not fully specified; also: part of the polymer BODIPY FL-labelled in some experiments) [LPG-Q]
half-life (t1/2) on the cell surface [1]: 8 h
polymer retained / glycocalyx specificity after enzyme-mediated glycocalyx removal [2]: higher specificity for glycocalyx modification
detection of ICAM-1 on the surface of endothelial cells [3]: camouflages pro-inflammatory ICAM-1 receptors in a dose-dependent manner; also recorded: reduced the detection of ICAM-1
CAR-T cell induced endothelial cell cytotoxicity [4]: reduced endothelial cytotoxicity
medial inflammation (graded 0-4) [5]: not demonstrated
decrease of PBMC-mediated cytotoxicity compared to unmodified cells [6]: under 2 fold
dependence of PBMC-mediated cytotoxicity suppression on polymer concentration or sialylation [6]: no continued significant increase in immunosuppression was observed beyond 0.27 mM
immunosuppression on the cell surface compared with polymer in solution [7]: more potent immunosuppression than LPG-Q-Sia3Lac in solution
PBMC-mediated endothelial cell death, in words ([7]; polymer ligated to cell surface): suppress PBMC-mediated endothelial cell death
